Measurements reported in US11274280B2, “Generation of functional beta cells from human pluripotent stem cell-derived endocrine progenitors” (Novo Nordisk A/S, priority 2016, dated 2022).

Test system: hPSC-derived beta cells
Assay: Perfusion assay of dynamic human insulin secretion in vitro
Type: cell-based
Details: human insulin ELISA
Description: Mature beta cells are functionally defined by their rapid response to elevated glucose. Secretion of human insulin by beta cells at the end of BC step 2 was measured as repeated responses to 20 mM glucose±1 μM exendin-4 or ±the anti-diabetic sulfonylurea compound Tolbutamide within a perfusion system.
Briefly, groups of 300 hand-picked, clusters of hESC- or hiPSC-derived cell clusters were suspended with beads (Bio-Rad #150-4124) in plastic chambers of Biorep PERFUSION SYSTEM (Biorep #PERI-4.2). Under temperature- and CO2-controlled conditions, the cells were perfused at 0.5 ml min-1 with a Krebs buffer. Prior to sample collection, cells were equilibrated under basal (2 mM glucose) conditions for 1 h. During perfusion cells were exposed to repeated challenges with 20 mM glucose±1 μM exendin-4 or ±100 μM Tolbutamide. At the end of perfusion, cells were exposed to cAMP-elevating agents on top of 20 mM glucose. Insulin secretion was measured by human insulin ELISA (Mercodia).

| Molecule | effect on insulin secretion (100 μM Tolbutamide with 20 mM glucose, day 7 of BC step 2) | level of insulin secretion (1 μM exendin-4 with 20 mM glucose, day 3 and day 7 of BC step 2) |
| --- | --- | --- |
| CCCCNC(=O)NS(=O)(=O)c1ccc(C)cc1 [tolbutamide, Tolbutamide] | significant additive effect |  |
| exendin-4 |  | increased the level of insulin secretion |
